Measurements as given in the supplement of paper PMC7287046.

Legend:
Conditions in all cases: exposure time: 72 h
U87 [1] = experiment: Chou-Talalay combination index (dimensionless); higher = less synergy (more antagonism)
Description: (§1)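 Glioma cell lines were treated for 72 h with a 6x6 matrix of two drugs, each in twofold dilutions with the top dose at the single-drug IC50. Viability was read by CellTiter-Glo and normalised to DMSO controls, in triplicate. The Chou-Talalay combination index was computed by the median effect principle; CI < 0.8 means synergy.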

SF268 [2] = experiment: as above
Description: as §1

U118 [3] = experiment: as above
Description: as §1

KNS42 = experiment: as above
Description: as §1

U251 [4] = experiment: as above
Description: as §1

SNB75 [5] = experiment: as above
Description: as §1

T98 = experiment: as above
Description: as §1

AM38 = experiment: as above
Description: as §1

SF539 [6] = experiment: as above
Description: as §1

U87 [7] = experiment: Bliss synergy score (Combenefit); higher = more synergy; extreme values may be limits of the assay
Description: (§2)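 The same 6x6 dose matrices of drug pairs on glioma cell lines (72 h, CellTiter-Glo viability normalised to DMSO, triplicate) were scored with Combenefit. The Loewe, Bliss and HSA synergy scores are given; paper thresholds are Loewe 7.8 and Bliss 2.5.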

SF268 [8] = experiment: as above
Description: as §2

U118 [9] = experiment: as above
Description: as §2

U251 [10] = experiment: as above
Description: as §2

SNB75 [11] = experiment: as above
Description: as §2

AM-38 [12] = experiment: as above
Description: as §2

T98G [13] = experiment: as above
Description: as §2

KNS-42 [14] = experiment: as above
Description: as §2

SF539 [15] = experiment: as above
Description: as §2

U87 [16] = experiment: HSA synergy score (Combenefit); higher = more synergy
Description: as §2

SF268 [17] = experiment: as above
Description: as §2

U118 [18] = experiment: as above
Description: as §2

U251 [19] = experiment: as above
Description: as §2

SNB75 [20] = experiment: as above
Description: as §2

AM-38 [21] = experiment: as above
Description: as §2

T98G [22] = experiment: as above
Description: as §2

KNS-42 [23] = experiment: as above
Description: as §2

SF539 [24] = experiment: as above
Description: as §2

U87 [25] = experiment: Loewe synergy score (Combenefit); higher = more synergy; extreme values may be limits of the assay
Description: as §2

SF268 [26] = experiment: as above
Description: as §2

U118 [27] = experiment: as above
Description: as §2

U251 [28] = experiment: as above
Description: as §2

SNB75 [29] = experiment: as above
Description: as §2

AM-38 [30] = experiment: as above
Description: as §2

T98G [31] = experiment: as above
Description: as §2

KNS-42 [32] = experiment: as above
Description: as §2

SF539 [33] = experiment: as above
Description: as §2

CC(=O)O[C@@]12CO[C@@H]1C[C@H](O)[C@@]1(C)C(=O)[C@H](O)C3=C(C)[C@@H](OC(=O)[C@H](O)[C@@H](NC(=O)OC(C)(C)C)c4ccccc4)C[C@@](O)([C@@H](OC(=O)c4ccccc4)[C@H]21)C3(C)C [Docetaxel] + CCC(=O)N1CCN(c2ccc(-n3c(=O)ccc4cnc5ccc(-c6cnc7ccccc7c6)cc5c43)cc2C(F)(F)F)CC1 [Torin1] was tested, and the Chou-Talalay combination index (U87 [1]) was 0.448, the Chou-Talalay combination index (SF268 [2]) was 0.8 and the Chou-Talalay combination index (U118 [3]) was 0.949. It also gave a Chou-Talalay combination index (KNS42) of 0.95, a Chou-Talalay combination index (U251 [4]) of 0.732 and a Chou-Talalay combination index (SNB75 [5]) of 0.749. The Chou-Talalay combination index (T98) was 0.53, the Chou-Talalay combination index (AM38) was 0.895 and the Chou-Talalay combination index (SF539 [6]) was 0.976. The Bliss synergy score (U87 [7]) was 14, the Bliss synergy score (SF268 [8]) was 2.06 and the Bliss synergy score (U118 [9]) was 0.102. The Bliss synergy score (U251 [10]) was 0.704, the Bliss synergy score (SNB75 [11]) was 0.14 and the Bliss synergy score (AM-38 [12]) was 0. The Bliss synergy score (T98G [13]) was 0.32, the Bliss synergy score (KNS-42 [14]) was 0.0301 and the Bliss synergy score (SF539 [15]) was 0. For the same compound, the HSA synergy score (U87 [16]) was 28.7, the HSA synergy score (SF268 [17]) was 12.8 and the HSA synergy score (U118 [18]) was 4.14. It also gave an HSA synergy score (U251 [19]) of 6.14, an HSA synergy score (SNB75 [20]) of 3.38 and an HSA synergy score (AM-38 [21]) of 9.71. It also gave an HSA synergy score (T98G [22]) of 9.53, an HSA synergy score (KNS-42 [23]) of 14.4 and an HSA synergy score (SF539 [24]) of 2.76. For the same compound, the Loewe synergy score (U87 [25]) was 20.6, the Loewe synergy score (SF268 [26]) was 6.57 and the Loewe synergy score (U118 [27]) was 1.75. It also gave a Loewe synergy score (U251 [28]) of 5.9, a Loewe synergy score (SNB75 [29]) of 1.3 and a Loewe synergy score (AM-38 [30]) of 3.28. For the same compound, the Loewe synergy score (T98G [31]) was 8.3, the Loewe synergy score (KNS-42 [32]) was 10.2 and the Loewe synergy score (SF539 [33]) was 2.76.

In the case of C#Cc1cccc(Nc2ncnc3cc(OCCOC)c(OCCOC)cc23)c1 [Erlotinib] + N#CC(c1ccnc(NCCc2cccnc2)n1)c1nc2ccccc2s1 [AS601245], the Chou-Talalay combination index (U87 [1]) is reported as 3, the Chou-Talalay combination index (SF268 [2]) is reported as 0.948 and the Chou-Talalay combination index (U118 [3]) is reported as 1.02. It also gave a Chou-Talalay combination index (KNS42) of 0.914, a Chou-Talalay combination index (U251 [4]) of 0.946 and a Chou-Talalay combination index (SNB75 [5]) of 1.07. It also gave a Chou-Talalay combination index (T98) of 0.621, a Chou-Talalay combination index (AM38) of 1.25 and a Chou-Talalay combination index (SF539 [6]) of 1.01. For the same compound, the Bliss synergy score (U87 [7]) was 0, the Bliss synergy score (SF268 [8]) was 0.0526 and the Bliss synergy score (U118 [9]) was 0. For the same compound, the Bliss synergy score (U251 [10]) was 0, the Bliss synergy score (SNB75 [11]) was 0 and the Bliss synergy score (AM-38 [12]) was 0. It also gave a Bliss synergy score (T98G [13]) of 0.855, a Bliss synergy score (KNS-42 [14]) of 0.447 and a Bliss synergy score (SF539 [15]) of 0.186. It also gave an HSA synergy score (U87 [16]) of 0, an HSA synergy score (SF268 [17]) of 2.63 and an HSA synergy score (U118 [18]) of 3.12. The HSA synergy score (U251 [19]) was 3.14, the HSA synergy score (SNB75 [20]) was 1.2 and the HSA synergy score (AM-38 [21]) was 0. For the same compound, the HSA synergy score (T98G [22]) was 3.77, the HSA synergy score (KNS-42 [23]) was 2.81 and the HSA synergy score (SF539 [24]) was 2.83. The Loewe synergy score (U87 [25]) was 0, the Loewe synergy score (SF268 [26]) was 0.12 and the Loewe synergy score (U118 [27]) was 2.58. The Loewe synergy score (U251 [28]) was 2.04, the Loewe synergy score (SNB75 [29]) was 0.0161 and the Loewe synergy score (AM-38 [30]) was 0. The Loewe synergy score (T98G [31]) was 3.11, the Loewe synergy score (KNS-42 [32]) was 1.56 and the Loewe synergy score (SF539 [33]) was 0.448.

With CO[C@H]1C[C@@H]2CC[C@@H](C)[C@@](O)(O2)C(=O)C(=O)N2CCCC[C@H]2C(=O)O[C@H]([C@H](C)C[C@@H]2CC[C@@H](O)[C@H](OC)C2)CC(=O)[C@H](C)/C=C(\C)[C@@H](O)[C@@H](OC)C(=O)[C@H](C)C[C@H](C)/C=C/C=C/C=C/1C [Rapamycin] + C=CCc1cccc(/C=N/NC(=O)CN2CCN(Cc3ccccc3)CC2)c1O [PAC-1] the Chou-Talalay combination index (U87 [1]) was 1.01, the Chou-Talalay combination index (SF268 [2]) was 0.962 and the Chou-Talalay combination index (U118 [3]) was 1.03. For the same compound, the Chou-Talalay combination index (KNS42) was 0.607, the Chou-Talalay combination index (U251 [4]) was 0.927 and the Chou-Talalay combination index (SNB75 [5]) was 0.925. It also gave a Chou-Talalay combination index (T98) of 1.13, a Chou-Talalay combination index (AM38) of 1.24 and a Chou-Talalay combination index (SF539 [6]) of 0.975. It also gave a Bliss synergy score (U87 [7]) of 0, a Bliss synergy score (SF268 [8]) of 0 and a Bliss synergy score (U118 [9]) of 0. The Bliss synergy score (U251 [10]) was 0.334, the Bliss synergy score (SNB75 [11]) was 0.0756 and the Bliss synergy score (AM-38 [12]) was 0. The Bliss synergy score (T98G [13]) was 0, the Bliss synergy score (KNS-42 [14]) was 5.47 and the Bliss synergy score (SF539 [15]) was 0.0748. The HSA synergy score (U87 [16]) was 0.71, the HSA synergy score (SF268 [17]) was 5.88 and the HSA synergy score (U118 [18]) was 4.75. The HSA synergy score (U251 [19]) was 0.552, the HSA synergy score (SNB75 [20]) was 8.87 and the HSA synergy score (AM-38 [21]) was 0.274. For the same compound, the HSA synergy score (T98G [22]) was 1.1, the HSA synergy score (KNS-42 [23]) was 14.1 and the HSA synergy score (SF539 [24]) was 4.8. For the same compound, the Loewe synergy score (U87 [25]) was 0, the Loewe synergy score (SF268 [26]) was 5.45 and the Loewe synergy score (U118 [27]) was 3.97. The Loewe synergy score (U251 [28]) was 0.233, the Loewe synergy score (SNB75 [29]) was 7.67 and the Loewe synergy score (AM-38 [30]) was 0.274. It also gave a Loewe synergy score (T98G [31]) of 0, a Loewe synergy score (KNS-42 [32]) of 13.7 and a Loewe synergy score (SF539 [33]) of 3.72.

Work on Nc1ccn([C@@H]2O[C@H](CO)[C@@H](O)C2(F)F)c(=O)n1 [Gemcitabine] + CCOc1nc(NC(=O)Cc2cc(OC)ccc2OC)cc(N)c1C#N [JNK inhibitor VIII] yielded a Chou-Talalay combination index (U87 [1]) of 0.631, a Chou-Talalay combination index (SF268 [2]) of 1.03 and a Chou-Talalay combination index (U118 [3]) of 1.03. It also gave a Chou-Talalay combination index (KNS42) of 0.946, a Chou-Talalay combination index (U251 [4]) of 1.16 and a Chou-Talalay combination index (SNB75 [5]) of 0.913. The Chou-Talalay combination index (T98) was 0.958, the Chou-Talalay combination index (AM38) was 1.14 and the Chou-Talalay combination index (SF539 [6]) was 0.933. The Bliss synergy score (U87 [7]) was 5.17, the Bliss synergy score (SF268 [8]) was 0.306 and the Bliss synergy score (U118 [9]) was 0. It also gave a Bliss synergy score (U251 [10]) of 0, a Bliss synergy score (SNB75 [11]) of 0.369 and a Bliss synergy score (AM-38 [12]) of 0. It also gave a Bliss synergy score (T98G [13]) of 0.133, a Bliss synergy score (KNS-42 [14]) of 0.163 and a Bliss synergy score (SF539 [15]) of 0.139. For the same compound, the HSA synergy score (U87 [16]) was 22.2, the HSA synergy score (SF268 [17]) was 0.909 and the HSA synergy score (U118 [18]) was 0.0469. For the same compound, the HSA synergy score (U251 [19]) was 0, the HSA synergy score (SNB75 [20]) was 5.13 and the HSA synergy score (AM-38 [21]) was 0. The HSA synergy score (T98G [22]) was 0.133, the HSA synergy score (KNS-42 [23]) was 0.883 and the HSA synergy score (SF539 [24]) was 2.34. For the same compound, the Loewe synergy score (U87 [25]) was 22.2, the Loewe synergy score (SF268 [26]) was 0.121 and the Loewe synergy score (U118 [27]) was 0.043. For the same compound, the Loewe synergy score (U251 [28]) was 0, the Loewe synergy score (SNB75 [29]) was 2.33 and the Loewe synergy score (AM-38 [30]) was 0. It also gave a Loewe synergy score (T98G [31]) of 0.133, a Loewe synergy score (KNS-42 [32]) of 0.883 and a Loewe synergy score (SF539 [33]) of 0.162.
